From patent US12440494B2, “Compounds useful for inhibiting RAF dimers” (ALBERT EINSTEIN COLLEGE OF MEDICINE, priority 2019, dated 2025) come the findings set out here.

Test [1] deals with T1, BRAF^V600E (Homo sapiens (Human), UniProt P15056, V600E). The test can be described thus: BRAF^V600E kinase activity, Z′-LYTE enzymatic assay (SelectScreen, Invitrogen). The format is biochemical. The following applies: 100 μM ATP; read-out: BRAF^V600E Inhibition IC50. How it is done:
BRAF kinase assays were performed using the Z′-LYTE™ enzymatic assay (Invitrogen, USA). […] Titrations were performed using a 1:3 dilution. Assays were performed using SelectScreen (Invitrogen).
Target sequence in this assay (P15056 whole entry V600E): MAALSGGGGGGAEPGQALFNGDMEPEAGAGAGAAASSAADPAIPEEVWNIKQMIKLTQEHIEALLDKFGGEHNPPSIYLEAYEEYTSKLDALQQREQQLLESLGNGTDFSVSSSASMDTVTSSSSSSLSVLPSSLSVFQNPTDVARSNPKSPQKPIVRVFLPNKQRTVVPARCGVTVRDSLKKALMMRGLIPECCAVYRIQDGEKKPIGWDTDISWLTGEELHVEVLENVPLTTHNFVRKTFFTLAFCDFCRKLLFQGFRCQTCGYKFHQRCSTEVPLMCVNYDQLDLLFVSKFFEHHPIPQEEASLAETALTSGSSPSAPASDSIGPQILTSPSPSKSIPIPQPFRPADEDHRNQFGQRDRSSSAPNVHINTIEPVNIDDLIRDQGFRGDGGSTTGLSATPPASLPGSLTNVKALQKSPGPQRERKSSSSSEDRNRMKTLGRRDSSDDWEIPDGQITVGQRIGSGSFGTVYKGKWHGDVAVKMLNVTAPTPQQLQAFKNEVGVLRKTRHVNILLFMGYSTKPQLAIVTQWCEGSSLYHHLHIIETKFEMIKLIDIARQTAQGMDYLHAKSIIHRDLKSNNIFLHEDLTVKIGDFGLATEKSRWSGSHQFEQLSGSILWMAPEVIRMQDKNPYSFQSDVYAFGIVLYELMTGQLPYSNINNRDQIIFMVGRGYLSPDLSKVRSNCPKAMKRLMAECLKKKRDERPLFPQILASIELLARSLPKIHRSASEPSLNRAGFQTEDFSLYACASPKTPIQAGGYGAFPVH

Test [2] deals with T1, BRAF^V600E. In words: In vitro kinase assay, BRAF^V600E activity to phosphorylate recombinant MEK (western blot). The format is biochemical. The following applies: western blot readout. In general terms: In western blotting, separated proteins are transferred to a membrane and probed.
Target sequence in this assay (P15056 457-717 V600E): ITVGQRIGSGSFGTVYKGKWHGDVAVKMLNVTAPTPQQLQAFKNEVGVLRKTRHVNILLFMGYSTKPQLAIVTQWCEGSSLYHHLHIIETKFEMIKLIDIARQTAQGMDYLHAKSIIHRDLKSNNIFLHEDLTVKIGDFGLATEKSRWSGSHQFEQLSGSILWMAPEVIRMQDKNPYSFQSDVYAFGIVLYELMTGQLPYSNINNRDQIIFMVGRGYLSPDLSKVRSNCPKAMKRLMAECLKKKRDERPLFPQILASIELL
Method: (§2) Western blots were performed from whole cell lysates (WCL) prepared in lysis buffer containing 50 mM Tris-HCl pH7.5, 1% NP40, 150 mM NaCl, 1 mM EDTA and 10% glycerol in the presence of protease inhibitor cocktail (Roche). […] Co-immunoprecipitation assays were performed from whole cell lysate prepared in lysis buffer in the presence of protease inhibitor cocktail (Roche) and incubated at 4° C. overnight with gentle rotation, then protein G beads were added and incubated for 2 hrs more at 4° C. Kinase activity assay were performed following manufactured protocol with some modifications (Millipore). In brief, BRAF and CRAF kinase domain, and MEK1 recombinant proteins were incubated for 15 min with inhibitors, then corresponding substrates were added and incubated for 30 min at 30° C. and assay for western blot.
Another test concerns the target CRAF (Homo sapiens (Human), UniProt P04049). In words: In vitro CRAF kinase activity assay (western blot). The format is biochemical.
A further test deals with ERK signaling. In words: Inhibition of ERK signaling in BRAF^V600E, p61BRAF^V600E and RAS mutant/BRAF^WT cell lines (immunoblot). It counts as cell-based. The following applies: 1 μM or 5 μM, 1 hr, all cell lines. How it is done:
(§1) Cell lines were purchased from ATCC or provided by Poulikos Poulikakos laboratory at Icahn School of Medicine at Mount Sinai. A375, SKMEL30 and SKMEL2 cells were grown in Dulbecco's modified Eagle's medium (DMEM) with 10% fetal bovine serum (FBS), 1% Pen-Strep, 1% Glutamine. […] CALU6 cells were grown in Roswell Park Memorial Institute medium (RPMI) with 10% fetal bovine serum (FBS), 1% Pen-Strep, 1% Glutamine.

The test system of test [3] is BRAF^V600E. In words: Biolayer interferometry, direct binding to purified BRAF. Set-up: species or system human. How it is done: Human BRAF kinase domain (residues 443-723) with V600E mutation in addition to designed mutations to improve expression in E. coli as previously described^12 was cloned into the first multiple cloning site of a pET-28a vector, which expresses a hexa-histidine tag at the N-terminus of BRAF. Recombinant protein was transformed and expressed into E. coli strain BL21-Codon Plus(DE3)-RIPL (Agilent Technologies). Protein purification was performed by a rapid two-step procedure using nickel-affinity chromatography (Ni-NTA) followed by size exclusion chromatography with Superdex200 HR 10/30 (GE Healthcare).
BRAF was biotinylated using EZ-Link™ Sulfo NHS-LC-LC-Biotin (Invitrogen) in phosphate-buffered saline (PBS) according to manufacturer instructions. Excess biotin was removed using size exclusion chromatography. Freshly biotinylated protein was immobilized on Super Streptavidin biosensors (SSA) to high levels (6-8 nm) followed by quenching with biocytin. Compound binding experiments were performed at 25° C. in PBS, 0.01% Tween-20 and 2% DMSO. To reference for bulk solvent effects, binding curves were corrected using data from control protein-free SSA biosensors, which were included in each experiment and were treated similarly to protein-loaded sensors.
(In general: BLI is a label-free optical method that tracks binding on a fibre tip over time.)

The next test relates to FGFR. The test can be described thus: Kinase inhibition of known ponatinib target FGFR. The format is biochemical.
Another test addresses FLT3 (Homo sapiens (Human), UniProt P36888). The test can be described thus: Kinase inhibition of known ponatinib target FLT3. The format is biochemical.
Test [4] has as its system p61BRAF^V600E dimers (SKMEL239-C4 cells). The test can be described thus: pMEK/pERK inhibition by western blot in SKMEL239-C4 melanoma cells. It counts as cell-based. How it is done: as §1
Test [5] has as its system BRAF^V600E monomers (A375 cells). In words: pMEK/pERK inhibition by western blot in A375 melanoma cells. It counts as cell-based. The conditions noted are these: compared to ponatinib. How it is done: as §1
The subject of test [6] is SMEL239 C4 melanoma cells. The test can be described thus: Cell viability assay (Cell-Titer Glo), SKMEL239 C4. The conditions noted are these: 72 hours. It counts as cell-based. How it is done: For cell viability assays, we followed the manufacturer's protocol for Cell-Titer Glo (Promega). In brief, cells were plated in 96-well plates at a density of 5000 cells per well. The next day, cells were treated with increasing concentrations of inhibitors for 72 hours at 37° C. At the end of the incubation period, 100 µL of Cell-Titer Glo (Promega) was added to each well and further incubated for 15 min. at room temperature. Cell viability was determined by measuring luminescence and was detected by a F200 PRO microplate reader (TECAN). Viability assays were performed in at least triplicate and the data normalized to vehicle-treated control wells. IC50 values were determined by nonlinear regression analysis using Prism software (Graphpad).

Test [7] addresses BRAF monomer (BRAF509H mutant) (Homo sapiens (Human), UniProt P15056, R509H). The test can be described thus: Isothermal titration calorimetry with BRAF509H mutant unable to dimerize. It counts as binding. The following applies: PBS plus 2% DMSO. For orientation: Isothermal titration calorimetry measures the heat released or taken up as one component is titrated into another.
Method: ITC was recorded using a MicroCal PEAQ-ITC instrument. […] Immediately before each ITC measurement, concentrated protein solution was diluted 0.8× in PBS, matched to 2% DMSO and used in the syringe. Protein was titrated in 18 or 20 injections of 2 l volume until saturation. Thermodynamic parameters were obtained using PEAQ-ITC analysis software and a one-site binding model.
The subject of another test is BRAF/CRAF heterodimers. In words: CRAF co-immunoprecipitation monitoring BRAF/CRAF heterodimerization in cells. The format is cell-based. The conditions noted are these: 1 μM (PHI1) or 1-5 μM (ponatinib), 1 hr.
The test system of the next test is BRAF/MEK complex. The test can be described thus: MEK co-immunoprecipitation monitoring BRAF/MEK complex formation in cells. It counts as cell-based. The following applies: 1 μM (PHI1) or 1-5 μM (ponatinib), 1 hr.

Chain of CRAF (P04049 349-609, species assumed): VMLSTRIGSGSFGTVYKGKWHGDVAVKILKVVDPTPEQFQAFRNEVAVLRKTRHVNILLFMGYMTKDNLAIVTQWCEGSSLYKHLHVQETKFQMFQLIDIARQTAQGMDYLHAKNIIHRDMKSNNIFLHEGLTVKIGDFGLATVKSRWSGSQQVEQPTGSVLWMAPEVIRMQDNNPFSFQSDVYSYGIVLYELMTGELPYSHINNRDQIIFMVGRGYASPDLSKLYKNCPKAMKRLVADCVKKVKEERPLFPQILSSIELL
Chain of BRAF monomer (BRAF509H mutant) (P15056 443-723 R509H limits assumed): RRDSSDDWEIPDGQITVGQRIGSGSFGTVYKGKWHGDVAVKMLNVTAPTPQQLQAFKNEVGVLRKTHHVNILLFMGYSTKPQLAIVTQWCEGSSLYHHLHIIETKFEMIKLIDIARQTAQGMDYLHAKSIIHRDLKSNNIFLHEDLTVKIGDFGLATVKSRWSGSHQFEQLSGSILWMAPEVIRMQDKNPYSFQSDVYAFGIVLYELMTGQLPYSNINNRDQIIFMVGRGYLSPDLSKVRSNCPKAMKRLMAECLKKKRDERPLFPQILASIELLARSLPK
Chain of FLT3 (P36888 27-993, species assumed): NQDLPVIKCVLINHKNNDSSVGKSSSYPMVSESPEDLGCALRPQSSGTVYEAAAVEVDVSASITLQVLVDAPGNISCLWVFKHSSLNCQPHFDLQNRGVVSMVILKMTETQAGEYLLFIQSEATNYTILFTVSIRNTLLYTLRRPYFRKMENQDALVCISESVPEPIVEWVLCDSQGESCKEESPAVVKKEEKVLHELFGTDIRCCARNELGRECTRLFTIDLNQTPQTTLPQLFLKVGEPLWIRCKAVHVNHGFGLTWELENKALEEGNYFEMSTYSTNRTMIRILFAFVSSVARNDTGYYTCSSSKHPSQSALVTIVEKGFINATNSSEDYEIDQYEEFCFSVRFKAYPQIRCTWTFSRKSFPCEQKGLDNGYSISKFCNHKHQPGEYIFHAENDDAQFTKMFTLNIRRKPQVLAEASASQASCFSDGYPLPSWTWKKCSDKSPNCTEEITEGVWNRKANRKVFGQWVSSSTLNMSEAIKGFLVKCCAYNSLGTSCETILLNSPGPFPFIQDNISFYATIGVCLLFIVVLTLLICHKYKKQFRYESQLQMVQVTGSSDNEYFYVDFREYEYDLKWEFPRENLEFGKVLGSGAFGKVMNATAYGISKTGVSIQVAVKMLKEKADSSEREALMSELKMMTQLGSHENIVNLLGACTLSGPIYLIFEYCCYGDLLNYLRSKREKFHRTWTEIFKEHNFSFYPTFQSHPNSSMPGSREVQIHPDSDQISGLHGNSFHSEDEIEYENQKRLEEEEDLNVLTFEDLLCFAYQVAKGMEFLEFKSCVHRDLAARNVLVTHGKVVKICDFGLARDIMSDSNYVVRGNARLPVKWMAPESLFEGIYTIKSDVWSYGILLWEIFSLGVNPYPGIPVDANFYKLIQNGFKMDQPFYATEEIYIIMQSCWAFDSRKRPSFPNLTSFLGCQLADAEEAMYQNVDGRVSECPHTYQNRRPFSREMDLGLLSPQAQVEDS
Method for BRAF/CRAF heterodimers: as §2
Method for BRAF/MEK complex: as §2

For the molecule `CCN(C)S(=O)(=O)Nc1ccc(F)c(C(=O)c2c[nH]c3ncc(-c4cnc(C5CC5)nc4)cc23)c1F` [PLX7904, reference compound], the IC50 on BRAF^V600E [1] turned out to be 6.7 nM.
In the case of `COc1cc(N2CCN(CCNCc3ccc(NC(=O)c4ccc(C)c(C#Cc5cnc6cccnn56)c4)cc3C(F)(F)F)CC2)ncn1` [Cmp. 4, 3-(imidazo[1,2-b]pyridazin-3-ylethynyl)-N-(4-(((2-(4-(6-methoxypyrimidin-4-yl)piperazin-1-yl)ethyl)amino)methyl)-3-(trifluoromethyl)phenyl)-4-methylbenzamide], the concentration for half-maximal inhibition (IC50) on BRAF^V600E [1] came to 48 nM.
On the same count and under the same terms, for `C#Cc1cc(C(=O)Nc2ccc(CNCCN3CCOCC3)c(C(F)(F)F)c2)ccc1C` [Cmp. 10, 3-ethynyl-4-methyl-N-(4-(((2-morpholinoethyl)amino)methyl)-3-(trifluoromethyl)phenyl)benzamide] the value was 1360 nM.
Turning to `Cc1ccc(C(=O)Nc2ccc(CN3CCN(C)CC3)c(C(F)(F)F)c2)cc1C#Cc1cnc2cccnn12` [Ponatinib], the “Inhibition of BRAF^V600E phosphorylation of recombinant MEK” value at BRAF^V600E [2] is “potent inhibitor”. Further, the “Inhibition of CRAF activity” value at CRAF is recorded as “potently inhibited”. The “Inhibition of ERK signaling” value with ERK signaling is on record as “inhibited ERK signaling”.
`C#Cc1cc(C(=O)Nc2ccc(CNCCN3CCN(c4ccccc4)CC3)c(C(F)(F)F)c2)ccc1C` [Cmp. 11, 3-Ethynyl-4-Methyl-N-[4-([[2-(4-Phenylpiperazin-1-Yl)Ethyl]Amino]Methyl)-3-(Trifluoromethyl)Phenyl] benzamide]: the IC50 on BRAF^V600E [1] came to 8940 nM.
Still for that read-out and setting: for `C#Cc1cc(C(=O)Nc2ccc(CNCCN3CCN(C(=O)OC)CC3)c(C(F)(F)F)c2)ccc1C` [Cmp. 8, Methyl 4-[2-([[4-(3-Ethynyl-4-Methylbenzamido)-2-(Trifluoromethyl)Phenyl]Methyl] Amino)Ethyl]Piperazine-1-Carboxylate] the value was 1790 nM; for `Cc1ccc(C(=O)Nc2ccc(CNCCN3CCN(S(C)(=O)=O)CC3)c(C(F)(F)F)c2)cc1C#Cc1cnc2cccnn12` [Cmp. 6, 3-(imidazo[1,2-b]pyridazin-3-ylethynyl)-4-methyl-N-(4-(((2-(4-(methylsulfonyl)piperazin-1-yl)ethyl)amino)methyl)-3-(trifluoromethyl)phenyl)benzamide], 29.4 nM; for `C#Cc1cc(C(=O)Nc2ccc(CNCCN3CCN(c4ccccn4)CC3)c(C(F)(F)F)c2)ccc1C` [Cmp. 14, 3-Ethynyl-4-Methyl-N-(4-(((2-(4-(Pyridin-2-Yl)Piperazin-1-Yl)Ethyl)Amino)Methyl)-3-(Trifluoromethyl)Phenyl) benzamide], 1830 nM.
With `C#Cc1cc(C(=O)Nc2ccc(CNCCN3CCNCC3)c(C(F)(F)F)c2)ccc1C` [Cmp. 12, 3-Ethynyl-4-Methyl-N-[4-([[2-(Piperazin-1-Yl)Ethyl]Amino]Methyl)-3-(Trifluoromethyl)Phenyl] benzamide], the IC50 on BRAF^V600E [1] turned out to be 11900 nM.
With `N#Cc1c(Oc2ccc(F)c(NC(=O)Cc3cccc(C(F)(F)F)c3)c2)ccc2nc(NC(=O)C3CC3)sc12` [TAK-632, reference compound], at BRAF^V600E [1], the IC50 was 36.2 nM.
On to `Cc1ccc(C(=O)Nc2ccc(CNCCN3CCOCC3)c(C(F)(F)F)c2)cc1C#Cc1cnc2cccnn12` [PHI1, 3-(imidazo[1,2-b]pyridazin-3-ylethynyl)-4-methyl-N-(4-(((2-morpholinoethyl)amino)methyl)-3-(trifluoromethyl)phenyl)benzamide], for which the IC50 at BRAF^V600E [1] was 10.4 nM; in [4] (SKMEL239-C4 cells, 1 hr treatment) it was 300 to 500 nM. Besides, in the test on BRAF^V600E [3], the “Difference in Koff values versus ponatinib (BLI)” value is “no significant difference”. In addition, the “Affinity for BRAF^V600E compared to ponatinib (BLI)” value in the test with BRAF^V600E [3] (25° C., PBS, 0.01% Tween-20, 2% DMSO) is given as “higher affinity”. Further, the “Reduction of inhibitory activity for FGFR relative to ponatinib” value with FGFR was found to be 43 fold. Besides, the “Reduction of inhibitory activity for FLT3 relative to ponatinib” value on FLT3 is 10 fold. The “Co-operativity in second site inhibition of BRAF^V600E dimer (p-ERK IC50 upon Encorafenib pre-treatment)” value in test [4] (SKMEL239 C4 cells with vs without Encorafenib pre-treatment) is reported as “positive co-operativity”. For the same molecule, in test [5], the “Activity against BRAF^V600E monomers in A375 cells” value is recorded as “significantly reduced compared to ponatinib”. Also, in test [6], the “Growth inhibition (viability)” value is reported as “inhibits effectively the growth”. Also, in test [7], the “Binding affinity for BRAF monomers (ITC)” value is “high micromolar affinity”. The “Induction of BRAF/CRAF complexes” value in the test with BRAF/CRAF heterodimers is given as “induces less”. In the test with BRAF/MEK complex, the “Induction of BRAF/MEK complexes” value is “induces less”.
For `C#Cc1cc(C(=O)Nc2ccc(CNCCN3CCN(C(=O)OC(C)(C)C)CC3)c(C(F)(F)F)c2)ccc1C` [Cmp. 9, Tert-Butyl4-[2-([[4-(3-Ethynyl-4-Methylbenzamido)-2-(Trifluoromethyl)Phenyl]Methyl] Amino)Ethyl]Piperazine-1-Carboxylate], the IC50 at BRAF^V600E [1] was 10900 nM.
For `Cc1ccc(C(=O)Nc2ccc(CNCCN3CCNCC3)c(C(F)(F)F)c2)cc1C#Cc1cnc2cccnn12` [Cmp. 13, 3-(2-[imidazo[1,2-b]pyridazin-3-yl]ethynyl)-4-methyl-n-[4-([[2-(piperazin-1-yl)ethyl]amino]methyl)-3-(trifluoromethyl)phenyl]benzamide], on BRAF^V600E [1], the IC50 was 5.5 nM.
On the same count and under the same terms, for `Cc1ccc(C(=O)Nc2ccc(CNCCN3CCC(=O)CC3)c(C(F)(F)F)c2)cc1C#Cc1cnc2cccnn12` [Cmp. 5, 3-(imidazo[1,2-b]pyridazin-3-ylethynyl)-4-methyl-N-(4-(((2-(4-oxopiperidin-1-yl)ethyl)amino)methyl)-3-(trifluoromethyl)phenyl)benzamide] the value was 30.7 nM; for `Cc1ccc(C(=O)Nc2ccc(CNCCc3ccncn3)c(C(F)(F)F)c2)cc1C#Cc1cnc2cccnn12` [Cmp. 7, 3-(imidazo[1,2-b]pyridazin-3-ylethynyl)-4-methyl-N-(4-(((2-(pyrimidin-4-yl)ethyl)amino)methyl)-3-(trifluoromethyl)phenyl)benzamide], 44.3 nM.

For orientation: IC50 means the point on the concentration scale where inhibition reaches its midpoint.
